Assay results from patent US7643943B2, “Methods for monitoring drug activities in vivo” (Wyeth LLC, priority 2003, dated 2010).

Tests used:
[1] = Pharmacokinetics of CCI-779 in patients with cancer following intravenous administration; conditions: human, whole blood
Text: The pharmacokinetics of CCI-779 is being studied in patients with cancer receiving CCI-779 either alone or in combination with other chemotherapeutic agents following intravenous administration. Intravenous dosage schedules previously investigated include a cyclical schedule (daily for 5 days every two weeks) and a once-weekly regimen. […] The following examples evaluated the safety, efficacy, and pharmacokinetic/pharmacodynamic relationship to clinical response of three doses of CCI-779, when administered to patients with advanced, refractory renal cell cancer (RCC).

[2] = Pharmacodynamic correlation of drug exposure metrics to severity and duration of adverse events; assay type: in vivo, human
Procedure: For the cumulative dose drug exposure, cumulative AUCsum was determined. Each patients' specific dosing history while on trial medication was determined and used to derive respective AUCs experienced by each patient for the duration of time from start of treatment to time of highest severity adverse event. This test included all the data, irrespective of AE severity, and was analyzed using the asymptotic Mantel-Haenszel Test for Ordinal Association. A severity score of “1” indicating the lowest severity and “3” indicating the highest severity was used. […] Pharmacokinetic parameters were grouped into low, medium and high categories with an equal number of patients in each category. […] Estimation of cumulative exposure was determined for each patient as described above. Duration of an AE was determined by calculating the time interval for which a given patient experienced a given AE. […] The correlations between AE duration and the continuous pharmacokinetic variables were calculated using Spearman rank correlation test (SAS Institute Inc., SAS® […] REFERENCE, Version 8, Cary, N C: SAS Institute Inc., 1999). […] Results of the pharmacodynamic analysis using AUCsum (discrete predictor), cumulative AUCsum (cumulative predictor variable), Ceoi (peak exposure predictor) are shown in Table 12 as derived from 49 differing adverse events recorded for those patients included in the population analysis. […] Cumulative AUCsum refers to aggregate AUCsum based on individual patient dosing history. Ceoi is the CCI-779 concentration observed at end of infusion.

[3] = clinical; conditions: human, whole blood
Procedure: In a randomized, double-blind, multicenter trial, once-weekly intravenous doses of 25-, 75-, or 250-mg of CCI-779 were administered to patients with advanced renal cancer that were either previously treated, or untreated and not appropriate candidates for high dose interlukin-2 therapy. Whole blood for CCI-779 and metabolite concentrations was drawn for population pharmacokinetic analysis, and Bayesian-predicted area under the concentration-time curves for parent drug (AUC), parent plus metabolite (AUCsum), and cumulative AUC and AUCsum were derived.
For CCI-779 clearance, factors for dose, attenuation of exposure with multiple-dose, and effect of body surface area were included.
The following examples were based on a randomized, double-blind, multicenter, outpatient phase 2 study of CCI-779 administered by 30 minute intravenous infusion (via an automatic dispensing pump) in patients with advanced RCC. Eligible patients were randomly assigned to treatment in a 1:1:1 ratio to receive 25 mg, 75 mg, or 250 mg of CCI-779 weekly until evidence of disease progression.
Full pharmacokinetic profiling was planned in a subset of patients, with remaining patients to provide sparse sampling.
The bioanalytical method for CCI-779 was performed using whole blood in a liquid chromatography/tandem mass spectrometry (LC/MS/MS) procedure with deuterated internal standard.
In order to characterize the pharmacokinetic profiles of patients providing sparse blood sampling, fully and sparsely sampled patient data were analyzed collectively using a population pharmacokinetic method and the NONMEM application (version 1.0, Revision 5.0 on Windows NT 4.0 computer with Pentium processor, NONMEM Project Group, University of California at San Francisco, Calif.). […] Data were therefore modeled separately and segregated by analyte into two separate data sets with dose, time/duration of administration, and demographic information. […] Construction of the NONMEM infile was performed using SAS (version 8.1) on a Sun Microsystems mainframe computer with Sun OS 5.8. […] In both cases, the model-derived value for AUC for a given patient and analyte were obtained from the quotient of CCI-779 Dose/Clearance (CL), in which CL was obtained from Bayesian estimation and the POSTHOC option of NONMEM.
During model building, an exponential error model was applied to the kinetic model.

[4] = CCI-779 final population model, whole blood, RCC patients
[5] = CCI-779 model, 1,000 bootstrap sample runs
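Throughout, for Inter-Patient Variability % on CL: population pharmacokinetic analysis in NONMEM of pooled full and sparse blood sampling from patients, exponential error on kinetic parameters, proportional residual error, bootstrap check over 1,000 resamples.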
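Throughout, for Inter-Patient Variability % on V2: population pharmacokinetic analysis in NONMEM of pooled full and sparse blood sampling from patients, exponential error on kinetic parameters, proportional residual error, bootstrap check over 1,000 resamples.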
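Throughout, for Inter-Patient Variability % on V3: population pharmacokinetic analysis in NONMEM of pooled full and sparse blood sampling from patients, exponential error on kinetic parameters, proportional residual error, bootstrap check over 1,000 resamples.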
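Throughout, for Intersubject variability on CL (ω^21), final model parameter estimate: population pharmacokinetic analysis in NONMEM of pooled full and sparse blood sampling from patients, exponential error on kinetic parameters, proportional residual error, bootstrap check over 1,000 resamples.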

Compound: CO[C@H]1C[C@@H]2CC[C@@H](C)[C@@](O)(O2)C(=O)C(=O)N2CCCC[C@H]2C(=O)O[C@H]([C@H](C)C[C@@H]2CC[C@@H](OC(=O)C(C)(CO)CO)[C@H](OC)C2)CC(=O)[C@H](C)/C=C(\C)[C@@H](O)[C@@H](OC)C(=O)[C@H](C)C[C@H](C)/C=C/C=C/C=C/1C [CCI-779]
- half-life [1]: ~840 min
- clearance ([1]; 25 mg): ~333 mL/min
- clearance ([1]; 250 mg): ~1670 mL/min
- Spearman correlation to Ceoi: duration of Pain abdomen ([2]; N patients 13, P-value 0.01): 0.01 (0.873)
- Correlation to Ceoi: severity of Myalgia ([2]; N patients 13, P-value 0.013, Ceoi = CCI-779 concentration at end of infusion): 0.013 (0.414)
- Correlation to Ceoi: severity of Fever ([2]; N patients 17, P-value 0.022): 0.022 (0.402)
- Spearman correlation to Ceoi: duration of Fever ([2]; N patients 17, P-value 0.04): 0.04 (−0.626)
- Spearman correlation to Ceoi: duration of Anorexia ([2]; N patients 22, P-value 0.015): 0.015 (0.597)
- Inter-Patient Variability % on CL (CCI-779 final population model): 23.7%
- Inter-Patient Variability % on V2 (CCI-779 final population model): 44.1%
- Inter-Patient Variability % on V3 (CCI-779 final population model): 129%
- Intersubject variability on CL (ω^21), final model parameter estimate (CCI-779 final population model): 0.056
- Intersubject variability on V2 (ω^22), final model parameter estimate (CCI-779 final population model): 0.194
- Intersubject variability on V3 (ω^23), final model parameter estimate (CCI-779 final population model): 1.67
- Proportional error (ε^2), final model parameter estimate (CCI-779 final population model): 0.157
- V1 (θ2), parameter estimate [4]: 37.6 L
- V2 (θ4), parameter estimate [4]: 271 L
- V3 (θ6), parameter estimate [4]: 323 L
- Q2 (θ3), parameter estimate (CCI-779 final population model, TVQ2=6.48*DOSE^0.551): 6.48 L/h
- Q3 (θ5), parameter estimate (CCI-779 final population model, TVQ3=0.258*DOSE^0.551): 0.258 L/h
- INTR, inter-period variability on CL (θ8), parameter estimate (CCI-779 final population model, factor for multiple doses (DNUM=1)): 0.103
- Inter-period variability on CL (θ8), bootstrap sample median [5]: 0.110
- Intersubject variability on CL (ω^21), bootstrap sample median [5]: 0.215
- Intersubject variability on V2 (ω^22), bootstrap sample median [5]: 0.414
- Intersubject variability on V3 (ω^23), bootstrap sample median [5]: 1.08
- Proportional error (ε^2), bootstrap sample median [5]: 0.383
- Q2 (θ3), bootstrap sample median [5]: 6.46 L/h
- Q3 (θ5), bootstrap sample median [5]: 0.267 L/h
- V1 (θ2), bootstrap sample median [5]: 38.3 L
- V2 (θ4), bootstrap sample median [5]: 275 L
- V3 (θ6), bootstrap sample median [5]: 339 L
- increase of clearance with BSA (for a given dose, patients with BSA values that range from 1.5 to 2 m^2): approximately 45%
- clearance ([3]; intravenous): 24.2 mL/min
- clearance ([3]; iv): 23.2 mL/min
